PubChem BioAssay (NCI)
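Growth conditions: 96-well plates. Treatment: test compound, 48 hours, 5 concentrations. Analysis: linear interpolation between bracketing concentrations; unreached endpoints set to highest concentration. The concentration for full growth arrest is given as TGI.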

How the values were obtained:
Assay in all cases: NCI tumour cell line growth inhibition, 48 h
[1] = system: HL-60(TB) leukemia
[2] = system: BT-549 breast
[3] = system: SN12C renal
[4] = system: NCI-H522 lung
[5] = system: UO-31 renal
[6] = system: OVCAR-3 ovarian
[7] = system: SNB-75 CNS
[8] = system: DU-145 prostate
[9] = system: HT29 colon
[10] = system: HS 578T breast
[11] = system: SK-OV-3 ovarian
[12] = system: HOP-92 NSCLC
[13] = system: NCI/ADR-RES ovarian
[14] = system: T-47D breast
[15] = system: CCRF-CEM leukemia
[16] = system: MCF7 breast
[17] = system: SF-539 CNS
[18] = system: M14 melanoma
[19] = system: SK-MEL-2 melanoma
[20] = system: EKVX NSCLC
[21] = system: OVCAR-4 ovarian
[22] = system: SF-295 CNS
[23] = system: 786-0 renal
[24] = system: MOLT-4 leukemia
[25] = system: SK-MEL-5 melanoma
[26] = system: SW-620 colon
[27] = system: KM12 colon
[28] = system: TK-10 renal
[29] = system: MDA-MB-435
[30] = system: NCI-H23 lung
[31] = system: NCI-H226 lung
[32] = system: COLO 205 colon
[33] = system: UACC-62 melanoma
[34] = system: HOP-62 NSCLC
[35] = system: MDA-MB-231 breast
[36] = system: CAKI-1 renal
[37] = system: MDA-N
[38] = system: HCT-116 colon
[39] = system: HCT-15 colon
[40] = system: HCC-2998 colon
[41] = system: UACC-257 melanoma
[42] = system: NCI-H460 lung
[43] = system: A549 NSCLC
[44] = system: ACHN renal
[45] = system: OVCAR-8 ovarian
[46] = system: RXF 393 renal
[47] = system: SK-MEL-28 melanoma
[48] = system: SF-268 CNS
[49] = system: RPMI-8226 leukemia
[50] = system: K-562 leukemia
[51] = system: LOX IMVI melanoma
[52] = system: U251 CNS
[53] = system: PC-3 prostate
[54] = system: A498 renal
[55] = system: SR leukemia
[56] = system: IGROV1 ovarian
[57] = system: MALME-3M melanoma
[58] = system: OVCAR-5 ovarian
[59] = system: SNB-19 CNS

Cc1ncc(CO)c(C=NCCCCCCN=Cc2c(CO)cnc(C)c2O)c1O showed a TGI [1] of over 100 µM, a TGI [2] of over 100 µM and a TGI [3] of over 100 µM. For the same compound, the TGI [4] was over 100 µM, the TGI [5] was over 100 µM and the TGI [6] was over 100 µM. For the same compound, the TGI [7] was over 100 µM, the TGI [8] was over 100 µM and the TGI [9] was over 100 µM. It also gave a TGI [10] of over 100 µM, a TGI [11] of over 100 µM and a TGI [12] of over 100 µM. It also gave a TGI [13] of over 100 µM, a TGI [14] of over 100 µM and a TGI [15] of over 100 µM. The TGI [16] was over 100 µM, the TGI [17] was over 100 µM and the TGI [18] was over 100 µM. For the same compound, the TGI [19] was over 100 µM, the TGI [20] was over 100 µM and the TGI [21] was over 100 µM. For the same compound, the TGI [22] was over 100 µM, the TGI [23] was over 100 µM and the TGI [24] was over 100 µM. The TGI [25] was over 100 µM, the TGI [26] was over 100 µM and the TGI [27] was over 100 µM. The TGI [28] was over 100 µM, the TGI [29] was over 100 µM and the TGI [30] was over 100 µM. The TGI [31] was over 100 µM, the TGI [32] was over 100 µM and the TGI [33] was over 100 µM. The TGI [34] was over 100 µM, the TGI [35] was over 100 µM and the TGI [36] was over 100 µM. It also gave a TGI [37] of over 100 µM, a TGI [38] of over 100 µM and a TGI [39] of over 100 µM. It also gave a TGI [40] of over 100 µM, a TGI [41] of over 100 µM and a TGI [42] of over 100 µM. It also gave a TGI [43] of over 100 µM, a TGI [44] of over 100 µM and a TGI [45] of over 100 µM. The TGI [46] was over 100 µM, the TGI [47] was over 100 µM and the TGI [48] was over 100 µM. It also gave a TGI [49] of over 100 µM, a TGI [50] of over 100 µM and a TGI [51] of over 100 µM. For the same compound, the TGI [52] was over 100 µM, the TGI [53] was over 100 µM and the TGI [54] was over 100 µM. The TGI [55] was over 100 µM, the TGI [56] was over 100 µM and the TGI [57] was over 100 µM. It also gave a TGI [58] of over 100 µM and a TGI [59] of over 100 µM.
Work on CC1(C)CC2(C)ON=C(c3ccccc3)N2c2ccccc2N1 (stereo not drawn) yielded a TGI [1] of 56.4 µM, a TGI [2] of 36.9 µM and a TGI [3] of 84 µM. For the same compound, the TGI [4] was 47.3 µM, the TGI [5] was 43.6 µM and the TGI [6] was 33.7 µM. For the same compound, the TGI [7] was 94.9 µM, the TGI [8] was over 100 µM and the TGI [9] was 29.9 µM. It also gave a TGI [10] of 42.6 µM, a TGI [11] of 53 µM and a TGI [12] of 61.4 µM. It also gave a TGI [13] of 74.6 µM, a TGI [14] of 56.7 µM and a TGI [15] of over 100 µM. The TGI [16] was 47 µM, the TGI [17] was 40.1 µM and the TGI [18] was 40.6 µM. The TGI [19] was 40.1 µM, the TGI [20] was 77 µM and the TGI [21] was over 100 µM. It also gave a TGI [22] of over 100 µM, a TGI [23] of 57.3 µM and a TGI [24] of 75.6 µM. For the same compound, the TGI [25] was 30.7 µM, the TGI [26] was over 100 µM and the TGI [27] was over 100 µM. For the same compound, the TGI [28] was 91.8 µM, the TGI [29] was 39.8 µM and the TGI [30] was 82.1 µM. It also gave a TGI [31] of 42.8 µM, a TGI [32] of 45.9 µM and a TGI [33] of 27.9 µM. It also gave a TGI [34] of 37 µM, a TGI [35] of 28.7 µM and a TGI [36] of 60.2 µM. For the same compound, the TGI [37] was 47.9 µM, the TGI [38] was 28 µM and the TGI [39] was over 100 µM. For the same compound, the TGI [40] was over 100 µM, the TGI [41] was 58.3 µM and the TGI [42] was 46.9 µM. It also gave a TGI [43] of over 100 µM, a TGI [44] of 68.8 µM and a TGI [45] of over 100 µM. The TGI [46] was 54.5 µM, the TGI [47] was 57.5 µM and the TGI [48] was 48.2 µM. The TGI [49] was 93 µM, the TGI [50] was 52.3 µM and the TGI [51] was 33.8 µM. For the same compound, the TGI [52] was 41.1 µM, the TGI [53] was 42.1 µM and the TGI [54] was 54.4 µM. For the same compound, the TGI [55] was over 100 µM, the TGI [56] was over 100 µM and the TGI [57] was 55.3 µM. For the same compound, the TGI [58] was over 100 µM and the TGI [59] was 68.1 µM.
